Data set [1] concerns Daphnia sp. Conditions: for Classification (aquatic toxicity): based on Daphnia 48 hours EC50.
The subject of data set [2] is Fish. Kind of data set: Experimental fish 96-hour acute toxicity (values in brackets in Table 4). Format: in vivo. Particulars: experimental result (value in brackets).

Where two headings read alike, the source gives them in different places.

Data on three compounds can be found in patent US20130142717A1, “OFFSHORE GAS SEPARATION PROCESS” (priority 2011, published 2013).

On to `COCCOCCOCCNC(C)(C)C` [B, Methoxyethoxyethoxyethanol-tert-butylamine], for which the “Classification (aquatic toxicity)” value in data set [1] was “No classification”. In data set [1] (experimental, 48 hours), the “Daphnia Experimental, 48 hours, EC50” value is reported as “EC50 > 100 mg/l”. The compound also registered a Biodegradability (day 0, 20° C.) of 0; a Biodegradability (day 1, 20° C.) of 0.00; a Biodegradability (day 2, 20° C.) of 0.20; a Biodegradability (day 3, 20° C.) of 0.30; a Biodegradability (day 4, 20° C.) of 0.60; a Biodegradability (day 5, 20° C.) of 1.02. For the same compound, the Biodegradability reads like this: (day 6, 20° C.) 1.54; (day 7, 20° C.) 2.09; (day 8, 20° C.) 3.00; (day 9, 20° C.) 3.81; (day 10, 20° C.) 1.89; (day 11, 20° C.) 3.82. Besides, the Biodegradability amounted to 4.04 (day 12, 20° C.); 4.70 (day 13, 20° C.); 5.70 (day 14, 20° C.); 6.03 (day 15, 20° C.); 6.56 (day 16, 20° C.); 7.14 (day 17, 20° C.). The Biodegradability is, setting by setting: (day 18, 20° C.) 7.65; (day 19, 20° C.) 9.52; (day 20, 20° C.) 7.55; (day 21, 20° C.) 7.55; (day 22, 20° C.) 7.55; (day 23, 20° C.) 7.55. For the same compound, the Biodegradability was found to be 7.55 (day 24, 20° C.); 7.55 (day 25, 20° C.); 7.55 (day 26, 20° C.); 7.55 (day 27, 20° C.); 7.55 (day 28, 20° C.).

Turning to `CC(C)(C)NCCOCCOCCNC(C)(C)C` [D, Bis-(t-butylamino ethoxy)ethane (bis-(t-butylamino)triethylene glycol)], the “Classification (aquatic toxicity)” value in data set [1] is recorded as “Harmful to aquatic”.

As to “Ethoxyethanol-tert-butylamine (tert-butylamino-ethoxy-ethanol)”, the “Classification (aquatic toxicity)” value in data set [1] is reported as “Harmful to aquatic”. Moreover, the “Daphnia 48-hour LC50” value in data set [1] (experimental result (value in brackets)) was 31.6 µg/mL. The Biodegradability is, setting by setting: (day 0, 20° C.) 0; (day 1, 20° C.) 0.05; (day 2, 20° C.) 0.00; (day 3, 20° C.) 0.00; (day 4, 20° C.) 0.00; (day 5, 20° C.) 0.00. Also, the Biodegradability is, setting by setting: (day 6, 20° C.) 0.00; (day 7, 20° C.) 0.06; (day 8, 20° C.) 1.68; (day 9, 20° C.) 3.34; (day 10, 20° C.) 0.47; (day 11, 20° C.) 0.56. For the same compound, the Biodegradability is, setting by setting: (day 12, 20° C.) 0.76; (day 13, 20° C.) 0.91; (day 14, 20° C.) 1.04; (day 15, 20° C.) 1.16; (day 16, 20° C.) 1.33; (day 17, 20° C.) 1.51. The Biodegradability is 1.56 (day 18, 20° C.); 1.58 (day 19, 20° C.); 1.71 (day 20, 20° C.); 1.89 (day 21, 20° C.); 2.00 (day 22, 20° C.); 1.95 (day 23, 20° C.). The Biodegradability was 2.00 (day 24, 20° C.); 2.06 (day 25, 20° C.); 2.06 (day 26, 20° C.); 2.06 (day 27, 20° C.); 2.06 (day 28, 20° C.). Moreover, the “Fish 96-hour LC50” value in data set [2] came to 225 µg/mL.
